Tests used:
[1] = test system: patients with treatment-resistant major depressive disorder; test: Clinical trial of inhaled 5-MeO-DMT in TRD patients: safety and tolerability; type: in vivo, human
[2] = Clinical trial of inhaled 5-MeO-DMT in healthy volunteers: 5-MeO-DMT and bufotenine plasma levels; type: in vivo, human
Description: The trial consisted of two parts: Part A, where single doses of 5-MeO-DMT dosage amounts of 2 mg, 6 mg, 12 mg and 18 mg were administered; and Part B, where an initial 5-MeO-DMT dosage amount of 6 mg was administered, and then, unless the participant had already experienced a peak psychedelic experience based on the PPEQ or the supervising physician had decided that further dose increases were inappropriate based on observed side effects, further subsequent dosage amounts of 12 mg and 18 mg were administered with about 3 hours in between each administration. […] Pharmacokinetic analysis of 5-MeO-DMT and bufotenine plasma levels was performed at 1 hour and 3 hours after drug administration in Part A, and at 3 hours after drug administration in Part B.

[3] = test system: patients with treatment-resistant major depressive disorder; test: Clinical trial of inhaled 5-MeO-DMT in TRD patients: depression severity and psychiatric symptom scales
[4] = both patients, single 12 mg inhaled dose
[5] = Patient 1, 2 h after single 12 mg inhaled dose, baseline 1
[6] = Patient 1, 2 h after single 12 mg inhaled dose, baseline 5
[7] = Patient 1, 1 d after single 12 mg inhaled dose, baseline 1
[8] = Patient 1, 1 d after single 12 mg inhaled dose, baseline 5
[9] = Patient 1, 7 d after single 12 mg inhaled dose, baseline 1
[10] = Patient 1, 7 d after single 12 mg inhaled dose, baseline 5
[11] = Patient 2, 2 h after single 12 mg inhaled dose, baseline 5
[12] = Patient 2, 1 d after single 12 mg inhaled dose, baseline 5
[13] = Patient 2, 7 d after single 12 mg inhaled dose, baseline 5
[14] = both patients, after single 12 mg inhaled dose
[15] = both patients, all assessment time points (2 h, 1 d, 7 d) after single 12 mg inhaled dose

## COc1ccc2[nH]cc(CCN(C)C)c2c1 [5-MeO-DMT, 5-methoxy-N,N-dimethyltryptamine]
[1]; Patient 1, single 12 mg inhaled dose, Day 1
  Reported adverse events: Headache, Flashback
[1]; Patient 1, single 12 mg inhaled dose, Day 7
  Reported adverse events: Headache
[1]; Patient 1, single 12 mg inhaled dose, administration day
  Reported adverse events: Dizziness
[1]; Patient 2, single 12 mg inhaled dose, Day 1
  Reported adverse events: Headache
[1]; Patient 2, single 12 mg inhaled dose, Day 7
  Reported adverse events: None reported
[1]; Patient 2, single 12 mg inhaled dose, administration day
  Reported adverse events: None reported
[1]; both patients, ECG at 3 hours, laboratory at 3 hours and 7 days, CADSS at 3 hours, 1 day, 7 days, cognitive tests at 1 day and 7 days
  Assessments of ECG, safety laboratory analyses, CADSS and cognitive tests (PVT, DSST): unremarkable
[1]; both patients, shortly after single 12 mg inhaled dose, no other noteworthy changes
  Changes in vital parameters: temporary, not clinically relevant increase in heart rate and blood pressure
[1]; [4]
  Severity and course of reported adverse events: mild, short-lasting and resolved spontaneously
  Tolerability of the inhalation procedure: well tolerated with no inhalation-related adverse events
[2]; Part A and Part B, 3-hour time point, LLOQ of the 5-MeO-DMT assay 0.014 ng/ml
  5-MeO-DMT plasma levels: reached the lower level of quantification (LLOQ)
[2]; any dose in Part A, 1-hour timepoint
  5-MeO-DMT plasma levels: very low
[3]; Patient 1, 2 h after single 12 mg inhaled dose
  PGI-I (7-point scale; 1, Very much improved; 2, Much improved; 7, Very much worse): 1
[3]; [5]
  BPRS Unusual thought content (1-7): 1
  MADRS suicidal thoughts item (0 to 6): 0
[3]; Patient 1, 2 h after single 12 mg inhaled dose, baseline 3
  BPRS Somatic concern (1-7): 2
[3]; Patient 1, 2 h after single 12 mg inhaled dose, baseline 4
  BPRS Tension (1-7): 3
[3]; [6]
  BPRS Guilt feelings (1-7): 1
  PGI-S (7-point scale; 1, Normal, not at all ill; 7, Extremely ill): 1
[3]; Patient 1, 2 h after single 12 mg inhaled dose, baseline 6
  BPRS Depressive Mood (1-7): 2
[3]; Patient 1, 2 h after single 12 mg inhaled dose, baseline 7
  BPRS Anxiety (1-7): 2
[3]; Patient 1, 2 h after single 12 mg inhaled dose, baseline 31, sleep item carried forward from baseline
  MADRS (overall score 0 to 60): 10
[3]; Patient 1, 2 h after single 12 mg inhaled dose, baseline 42
  BPRS (total, 18 symptoms each rated 1-7): 27
[3]; Patient 1, 2 h after single 12 mg inhaled dose, baseline Yes
  C-SSRS Suicidal Ideation (any of the suicidal ideation items present): No
[3]; Patient 1, 1 d after single 12 mg inhaled dose
  PGI-I (7-point scale; 1, Very much improved; 2, Much improved; 7, Very much worse): 1
[3]; [7]
  BPRS Unusual thought content (1-7): 1
  MADRS suicidal thoughts item (0 to 6): 0
[3]; Patient 1, 1 d after single 12 mg inhaled dose, baseline 3
  BPRS Somatic concern (1-7): 1
[3]; Patient 1, 1 d after single 12 mg inhaled dose, baseline 4
  BPRS Tension (1-7): 1
[3]; [8]
  BPRS Guilt feelings (1-7): 1
  PGI-S (7-point scale; 1, Normal, not at all ill; 7, Extremely ill): 1
[3]; Patient 1, 1 d after single 12 mg inhaled dose, baseline 6
  BPRS Depressive Mood (1-7): 1
[3]; Patient 1, 1 d after single 12 mg inhaled dose, baseline 7
  BPRS Anxiety (1-7): 1
[3]; Patient 1, 1 d after single 12 mg inhaled dose, baseline 31
  MADRS (overall score 0 to 60): 8
[3]; Patient 1, 1 d after single 12 mg inhaled dose, baseline 42
  BPRS (total, 18 symptoms each rated 1-7): 18
[3]; Patient 1, 1 d after single 12 mg inhaled dose, baseline Yes
  C-SSRS Suicidal Ideation (any of the suicidal ideation items present): No
[3]; Patient 1, 7 d after single 12 mg inhaled dose
  PGI-I (7-point scale; 1, Very much improved; 2, Much improved; 7, Very much worse): 1
[3]; [9]
  BPRS Unusual thought content (1-7): 1
  MADRS suicidal thoughts item (0 to 6): 0
[3]; Patient 1, 7 d after single 12 mg inhaled dose, baseline 3
  BPRS Somatic concern (1-7): 1
[3]; Patient 1, 7 d after single 12 mg inhaled dose, baseline 4
  BPRS Tension (1-7): 1
[3]; [10]
  BPRS Guilt feelings (1-7): 1
  PGI-S (7-point scale; 1, Normal, not at all ill; 7, Extremely ill): 1
[3]; Patient 1, 7 d after single 12 mg inhaled dose, baseline 6
  BPRS Depressive Mood (1-7): 1
[3]; Patient 1, 7 d after single 12 mg inhaled dose, baseline 7
  BPRS Anxiety (1-7): 1
[3]; Patient 1, 7 d after single 12 mg inhaled dose, baseline 31
  MADRS (overall score 0 to 60): 3
[3]; Patient 1, 7 d after single 12 mg inhaled dose, baseline 42
  BPRS (total, 18 symptoms each rated 1-7): 18
[3]; Patient 1, 7 d after single 12 mg inhaled dose, baseline Yes
  C-SSRS Suicidal Ideation (any of the suicidal ideation items present): No
[3]; Patient 2, 2 h after single 12 mg inhaled dose
  PGI-I (7-point scale; 1, Very much improved; 2, Much improved; 7, Very much worse): 2
[3]; Patient 2, 2 h after single 12 mg inhaled dose, baseline 1
  MADRS suicidal thoughts item (0 to 6): 0
[3]; Patient 2, 2 h after single 12 mg inhaled dose, baseline 3
  BPRS Tension (1-7): 1
[3]; Patient 2, 2 h after single 12 mg inhaled dose, baseline 4
  BPRS Somatic concern (1-7): 1
[3]; [11]
  BPRS Anxiety (1-7): 2
  BPRS Depressive Mood (1-7): 3
  BPRS Guilt feelings (1-7): 1
  PGI-S (7-point scale; 1, Normal, not at all ill; 7, Extremely ill): 1
[3]; Patient 2, 2 h after single 12 mg inhaled dose, baseline 6
  BPRS Unusual thought content (1-7): 1
[3]; Patient 2, 2 h after single 12 mg inhaled dose, baseline 33, sleep item carried forward from baseline
  MADRS (overall score 0 to 60): 9
[3]; Patient 2, 2 h after single 12 mg inhaled dose, baseline 45
  BPRS (total, 18 symptoms each rated 1-7): 26
[3]; Patient 2, 2 h after single 12 mg inhaled dose, baseline No
  C-SSRS Suicidal Ideation (any of the suicidal ideation items present): No
[3]; Patient 2, 1 d after single 12 mg inhaled dose
  PGI-I (7-point scale; 1, Very much improved; 2, Much improved; 7, Very much worse): 2
[3]; Patient 2, 1 d after single 12 mg inhaled dose, baseline 1
  MADRS suicidal thoughts item (0 to 6): 1
[3]; Patient 2, 1 d after single 12 mg inhaled dose, baseline 3
  BPRS Tension (1-7): 1
[3]; Patient 2, 1 d after single 12 mg inhaled dose, baseline 4
  BPRS Somatic concern (1-7): 1
[3]; [12]
  BPRS Anxiety (1-7): 1
  BPRS Depressive Mood (1-7): 1
  BPRS Guilt feelings (1-7): 1
  PGI-S (7-point scale; 1, Normal, not at all ill; 7, Extremely ill): 1
[3]; Patient 2, 1 d after single 12 mg inhaled dose, baseline 6
  BPRS Unusual thought content (1-7): 1
[3]; Patient 2, 1 d after single 12 mg inhaled dose, baseline 33
  MADRS (overall score 0 to 60): 5
[3]; Patient 2, 1 d after single 12 mg inhaled dose, baseline 45
  BPRS (total, 18 symptoms each rated 1-7): 19
[3]; Patient 2, 1 d after single 12 mg inhaled dose, baseline No
  C-SSRS Suicidal Ideation (any of the suicidal ideation items present): No
[3]; Patient 2, 7 d after single 12 mg inhaled dose
  PGI-I (7-point scale; 1, Very much improved; 2, Much improved; 7, Very much worse): 2
[3]; Patient 2, 7 d after single 12 mg inhaled dose, baseline 1
  MADRS suicidal thoughts item (0 to 6): 0
[3]; Patient 2, 7 d after single 12 mg inhaled dose, baseline 3
  BPRS Tension (1-7): 1
[3]; Patient 2, 7 d after single 12 mg inhaled dose, baseline 4
  BPRS Somatic concern (1-7): 1
[3]; [13]
  BPRS Anxiety (1-7): 1
  BPRS Depressive Mood (1-7): 1
  BPRS Guilt feelings (1-7): 1
  PGI-S (7-point scale; 1, Normal, not at all ill; 7, Extremely ill): 1
[3]; Patient 2, 7 d after single 12 mg inhaled dose, baseline 6
  BPRS Unusual thought content (1-7): 1
[3]; Patient 2, 7 d after single 12 mg inhaled dose, baseline 33
  MADRS (overall score 0 to 60): 5
[3]; Patient 2, 7 d after single 12 mg inhaled dose, baseline 45
  BPRS (total, 18 symptoms each rated 1-7): 18
[3]; Patient 2, 7 d after single 12 mg inhaled dose, baseline No
  C-SSRS Suicidal Ideation (any of the suicidal ideation items present): No
[3]; [14]
  Other general psychiatric symptoms assessed by the BPRS (somatic concern, anxiety, guilt, tension): improved
  Ratings for suicidality (suicidal thoughts item of the MADRS, C-SSRS Suicidal Ideation items): improved
[3]; [15]
  MADRS remission (MADRS total score equal or less than 10): fulfilled standard criteria
  MADRS response (at least 50% improvement from baseline): fulfilled standard criteria
[3]; [4]
  Time to clinical remission after a single administration: ≤ 2 h
  Time to clinical response after administration: ≤ 2 h

Source: patent US20250134861A1, “COMPOSITIONS COMPRISING 5-METHOXY-N,N-DIMETHYLTRYPTAMINE (5-MEO-DMT) FOR USE IN TREATING MENTAL DISORDERS” (GH RESEARCH IRELAND LIMITED, priority 2019, published 2025)
